Assay results published in ChEMBL document CHEMBL1671859, “bla(IMP-4) in different genetic contexts in Enterobacteriaceae isolates from Australia” (2008).

Key:
Format in all cases: functional
Klebsiella pneumoniae [1] = experiment: Antibacterial activity against Klebsiella pneumoniae isolate Kp1239 harboring IncL/M plasmid and blaIMP-4-qacG2-aacA4-catB3 array by Etest method in presence of clavulanic acid
Klebsiella pneumoniae [2] = experiment: Antibacterial activity against Klebsiella pneumoniae isolate Kp266 harboring IncA/C plasmid and blaIMP-4-qacG2-aacA4-catB3 array by Etest method in presence of clavulanic acid
Morganella morganii = experiment: Antibacterial activity against Morganella morganii Mm38009 transconjugant harboring IncL/M plasmid and blaIMP-4-qacG2-aacA4-catB3 array by Etest method in presence of clavulanic acid
Citrobacter youngae [3] = experiment: Antibacterial activity against Citrobacter youngae CyB38 transconjugant harboring blaIMP-4-qacG2-aacA4-catB3 array by Etest method in presence of clavulanic acid
Klebsiella pneumoniae [4] = experiment: Antibacterial activity against Klebsiella pneumoniae Kp38009 transconjugant harboring IncL/M plasmid and blaIMP-4-qacG2-aacA4-catB3 array by Etest method in presence of clavulanic acid
Escherichia coli = experiment: Antibacterial activity against Escherichia coli isolate Ec158 harboring IncA/C plasmid and blaIMP-4-qacG2-aacA4-catB3 array by Etest method in presence of clavulanic acid
Citrobacter youngae [5] = experiment: Antibacterial activity against Citrobacter youngae isolate CyB38 harboring blaIMP-4-qacG2-aacA4-catB3 array by Etest method in presence of clavulanic acid
Serratia marcescens [6] = experiment: Antibacterial activity against Serratia marcescens Sm2723 transconjugant harboring IncL/M plasmid and blaIMP-4-qacG2-aacA4-catB3 array by Etest method in presence of clavulanic acid
Serratia marcescens [7] = experiment: Antibacterial activity against Serratia marcescens Sm265 transconjugant harboring IncA/C plasmid and blaIMP-4-qacG2-aacA4-catB3 array by Etest method in presence of clavulanic acid
Enterobacter cloacae [8] = experiment: Antibacterial activity against Enterobacter cloacae isolate El3280 harboring IncL/M plasmid and blaIMP-4-qacG2-aacA4-catB3 array by Etest method in presence of clavulanic acid
Enterobacter cloacae [9] = experiment: Antibacterial activity against Enterobacter cloacae El3518 transconjugant harboring IncL/M plasmid and blaIMP-4-qacG2-aacA4-catB3 array by Etest method in presence of clavulanic acid
Serratia marcescens [10] = experiment: Antibacterial activity against Serratia marcescens isolate Sm201 harboring IncA/C plasmid and blaIMP-4-qacG2-aacA4-catB3 array by Etest method in presence of clavulanic acid
Citrobacter amalonaticus = experiment: Antibacterial activity against Citrobacter amalonaticus isolate Ca38009 harboring IncL/M plasmid and blaIMP-4-qacG2-aacA4-catB3 array by Etest method in presence of clavulanic acid
Klebsiella pneumoniae [11] = experiment: Antibacterial activity against Klebsiella pneumoniae isolate Kp149 harboring IncA/C plasmid and blaIMP-4-qacG2-aacA4-catB3 array by Etest method in presence of clavulanic acid

Measured: MIC

CC1(C)S[C@@H]2[C@H](NC(=O)[C@H](N)c3ccc(O)cc3)C(=O)N2[C@H]1C(=O)O [AMOXICILLIN]
> 16 µg/mL: all assays above
